Data: PubChem BioAssay AID1259407 (Chemical Carcinogenesis Research Information System (CCRIS), 2018)
The source made the active and inactive calls. How the calls were made is not given here.

Test system: CCRIS mutagenicity, Ames/micronucleus/aberration tests
Experiment: CCRIS mutagenicity studies
[1] = Test System: AMES SALMONELLA TYPHIMURIUM, Strain/Indicator: TA98, Metabolic Activation: NONE, Method: PREINCUBATION
[2] = Test System: AMES SALMONELLA TYPHIMURIUM, Strain/Indicator: TA98, Metabolic Activation: NONE, Method: STANDARD PLATE
[3] = Test System: AMES SALMONELLA TYPHIMURIUM, Strain/Indicator: TA98, Metabolic Activation: RAT, LIVER, S-9, AROCLOR 1254, Method: STANDARD PLATE
[4] = Test System: AMES SALMONELLA TYPHIMURIUM, Strain/Indicator: TA100, Metabolic Activation: NONE, Method: STANDARD PLATE
[5] = Test System: AMES SALMONELLA TYPHIMURIUM, Strain/Indicator: TA100, Metabolic Activation: RAT, LIVER, S-9, AROCLOR 1254, Method: STANDARD PLATE

SMILES: O=C1c2ccccc2-c2ccc([N+](=O)[O-])cc21
- mutagenic call (Test System: AMES SALMONELLA TYPHIMURIUM, Strain/Indicator: TA98 (1,8-DNP6), Metabolic Activation: NONE, Method: PREINCUBATION): active; positive
- mutagenic call (Test System: AMES SALMONELLA TYPHIMURIUM, Strain/Indicator: TA98(1,8-DNP6), Metabolic Activation: NONE, Method: STANDARD PLATE): active; positive
- mutagenic call (Test System: AMES SALMONELLA TYPHIMURIUM, Strain/Indicator: TA98 (NR), Metabolic Activation: NONE, Method: PREINCUBATION): active; positive
- mutagenic call (Test System: AMES SALMONELLA TYPHIMURIUM, Strain/Indicator: TA98(NR), Metabolic Activation: NONE, Method: STANDARD PLATE): active; positive
- mutagenic call (Test System: AMES SALMONELLA TYPHIMURIUM, Strain/Indicator: TA98(NR), Metabolic Activation: RAT LIVER S-9 (10%), Method: PREINCUBATION): active; positive
- mutagenic call (Test System: AMES SALMONELLA TYPHIMURIUM, Strain/Indicator: TA98(NR), Metabolic Activation: RAT LIVER S-9, 3-METHYLCHOLANTHRENE (10%), Method: PREINCUBATION): active; positive
- mutagenic call (Test System: AMES SALMONELLA TYPHIMURIUM, Strain/Indicator: TA98(NR), Metabolic Activation: RAT LIVER S-9, BETA-NAPHTHAFLAVONE (10%), Method: PREINCUBATION): active; positive
- mutagenic call (Test System: AMES SALMONELLA TYPHIMURIUM, Strain/Indicator: TA98(NR), Metabolic Activation: RAT LIVER S-9, PCB (10%), Method: PREINCUBATION): active; positive
- mutagenic call (Test System: AMES SALMONELLA TYPHIMURIUM, Strain/Indicator: TA98(NR), Metabolic Activation: RAT LIVER S-9, PHENOBARBITAL (10%), Method: PREINCUBATION): active; positive
- mutagenic call [1]: active; positive
- mutagenic call [2]: active; positive
- mutagenic call [3]: active; positive
- mutagenic call [4]: active; positive
- mutagenic call [5]: active; positive
- mutagenic call (Test System: AMES SALMONELLA TYPHIMURIUM, Strain/Indicator: TA1538, Metabolic Activation: NONE): active; positive
- mutagenic call (Test System: AMES SALMONELLA TYPHIMURIUM, Strain/Indicator: TA7001, Metabolic Activation: NONE, Method: PREINCUBATION): inactive; negative
- mutagenic call (Test System: AMES SALMONELLA TYPHIMURIUM, Strain/Indicator: TA7002, Metabolic Activation: NONE, Method: PREINCUBATION): active; positive
- mutagenic call (Test System: AMES SALMONELLA TYPHIMURIUM, Strain/Indicator: TA7003, Metabolic Activation: NONE, Method: PREINCUBATION): inactive; negative
- mutagenic call (Test System: AMES SALMONELLA TYPHIMURIUM, Strain/Indicator: TA7004, Metabolic Activation: NONE, Method: PREINCUBATION): active; positive
- mutagenic call (Test System: AMES SALMONELLA TYPHIMURIUM, Strain/Indicator: TA7005, Metabolic Activation: NONE, Method: PREINCUBATION): active; positive
- mutagenic call (Test System: AMES SALMONELLA TYPHIMURIUM, Strain/Indicator: TA7006, Metabolic Activation: NONE, Method: PREINCUBATION): active; positive
- mutagenic call (Test System: AMES SALMONELLA TYPHIMURIUM, Strain/Indicator: YG7131, Metabolic Activation: NONE): active; positive

SMILES: O=C1CC[C@@]2(O)[C@H]3Cc4ccc(O)c5c4[C@@]2(CCN3CC2CC2)[C@H]1O5
- mutagenic call (Test System: UDS HUMAN FIBROBLASTS, Strain/Indicator: THY INCORP (NON-S-PHASE), Metabolic Activation: NONE, Method: AUTORADIOGRAPHY): active; positive

SMILES: NCCS(=O)(=O)O
- mutagenic call (Test System: AMES SALMONELLA TYPHIMURIUM, Strain/Indicator: TA97, Metabolic Activation: HAMSTER, LIVER, S-9, AROCLOR 1254 (10 OR 30%), Method: PREINCUBATION): inactive; negative
- mutagenic call (Test System: AMES SALMONELLA TYPHIMURIUM, Strain/Indicator: TA97, Metabolic Activation: NONE, Method: PREINCUBATION): inactive; negative
- mutagenic call (Test System: AMES SALMONELLA TYPHIMURIUM, Strain/Indicator: TA97, Metabolic Activation: RAT, LIVER, S-9, AROCLOR 1254 (10 OR 30%), Method: PREINCUBATION): inactive; negative
- mutagenic call (Test System: AMES SALMONELLA TYPHIMURIUM, Strain/Indicator: TA98, Metabolic Activation: HAMSTER, LIVER, S-9, AROCLOR 1254 (10 OR 30%), Method: PREINCUBATION): inactive; negative
- mutagenic call [1]: inactive; negative
- mutagenic call (Test System: AMES SALMONELLA TYPHIMURIUM, Strain/Indicator: TA98, Metabolic Activation: RAT, LIVER, S-9, AROCLOR 1254 (10 OR 30%), Method: PREINCUBATION): inactive; negative
- mutagenic call (Test System: AMES SALMONELLA TYPHIMURIUM, Strain/Indicator: TA100, Metabolic Activation: HAMSTER, LIVER, S-9, AROCLOR 1254 (10 OR 30%), Method: PREINCUBATION): inactive; negative
- mutagenic call (Test System: AMES SALMONELLA TYPHIMURIUM, Strain/Indicator: TA100, Metabolic Activation: NONE, Method: PREINCUBATION): inactive; negative
- mutagenic call (Test System: AMES SALMONELLA TYPHIMURIUM, Strain/Indicator: TA100, Metabolic Activation: RAT, LIVER, S-9, AROCLOR 1254 (10 OR 30%), Method: PREINCUBATION): inactive; negative
- mutagenic call (Test System: AMES SALMONELLA TYPHIMURIUM, Strain/Indicator: TA1535, Metabolic Activation: HAMSTER, LIVER, S-9, AROCLOR 1254 (10 OR 30%), Method: PREINCUBATION): inactive; negative
- mutagenic call (Test System: AMES SALMONELLA TYPHIMURIUM, Strain/Indicator: TA1535, Metabolic Activation: NONE, Method: PREINCUBATION): inactive; negative
- mutagenic call (Test System: AMES SALMONELLA TYPHIMURIUM, Strain/Indicator: TA1535, Metabolic Activation: RAT, LIVER, S-9, AROCLOR 1254 (10 OR 30%), Method: PREINCUBATION): inactive; negative

SMILES: Fc1ccc(F)c2ncccc12
- mutagenic call (Test System: AMES SALMONELLA TYPHIMURIUM, Strain/Indicator: TA100, Metabolic Activation: RAT LIVER S-9, PHENOBARBITAL AND 5,6-BENZOFLAVONE, Method: PREINCUBATION): active; positive
- mutagenic call (Test System: AMES SALMONELLA TYPHIMURIUM, Strain/Indicator: TA100, Metabolic Activation: RAT, LIVER, S-9, PHENOBARBITAL AND 5,6-BENZOFLAVONE, Method: PREINCUBATION): active; positive

SMILES: CCCCCCCCCCCC(=O)OCCS(=O)(=O)O
- mutagenic call (Test System: AMES SALMONELLA TYPHIMURIUM, Strain/Indicator: TA98, Metabolic Activation: HAMSTER, LIVER, S-9, AROCLOR 1254, Method: STANDARD PLATE): inactive; negative
- mutagenic call [2]: inactive; negative
- mutagenic call [3]: inactive; negative
- mutagenic call (Test System: AMES SALMONELLA TYPHIMURIUM, Strain/Indicator: TA100, Metabolic Activation: HAMSTER, LIVER, S-9, AROCLOR 1254, Method: STANDARD PLATE): inactive; negative
- mutagenic call [4]: inactive; negative
- mutagenic call [5]: inactive; negative
- mutagenic call (Test System: AMES SALMONELLA TYPHIMURIUM, Strain/Indicator: TA1535, Metabolic Activation: HAMSTER, LIVER, S-9, AROCLOR 1254, Method: STANDARD PLATE): inactive; negative
- mutagenic call (Test System: AMES SALMONELLA TYPHIMURIUM, Strain/Indicator: TA1535, Metabolic Activation: NONE, Method: STANDARD PLATE): inactive; negative
- mutagenic call (Test System: AMES SALMONELLA TYPHIMURIUM, Strain/Indicator: TA1535, Metabolic Activation: RAT, LIVER, S-9, AROCLOR 1254, Method: STANDARD PLATE): inactive; negative
- mutagenic call (Test System: AMES SALMONELLA TYPHIMURIUM, Strain/Indicator: TA1537, Metabolic Activation: HAMSTER, LIVER, S-9, AROCLOR 1254, Method: STANDARD PLATE): inactive; negative
- mutagenic call (Test System: AMES SALMONELLA TYPHIMURIUM, Strain/Indicator: TA1537, Metabolic Activation: NONE, Method: STANDARD PLATE): inactive; negative
- mutagenic call (Test System: AMES SALMONELLA TYPHIMURIUM, Strain/Indicator: TA1537, Metabolic Activation: RAT, LIVER, S-9, AROCLOR 1254, Method: STANDARD PLATE): inactive; negative
- mutagenic call (Test System: MOUSE LYMPHOMA, Strain/Indicator: L5178Y (TK+/TK-), Metabolic Activation: NONE, Method: SUSPENSION/PLATE): inactive; negative. reevaluation of results: negative
- mutagenic call (Test System: MOUSE LYMPHOMA, Strain/Indicator: L5178Y (TK+/TK-), Metabolic Activation: RAT, LIVER, S-9, AROCLOR 1254, Method: SUSPENSION/PLATE): inactive; negative. reevaluation of results: negative
